Here are results for 13 molecules from paper PMC8834866, “2-Acetamido-2-deoxy-D-glucono-1,5-lactone Sulfonylhydrazones: Synthesis and Evaluation as Inhibitors of Human OGA and HexB Enzymes” (International Journal of Molecular Sciences, 2022).

One data set concerns the target OGA. The following applies: cited from earlier work.
For a further data set, the target named is HexB. The following applies: cited from earlier work.
The next data set has as its target T1, hOGA (Homo sapiens, UniProt O60502).
T1 construct: The gene construct encoding the full-length human OGA fused to N-terminal His6-tag; His6 (N); made in house
T1 sequence (O60502 1-916): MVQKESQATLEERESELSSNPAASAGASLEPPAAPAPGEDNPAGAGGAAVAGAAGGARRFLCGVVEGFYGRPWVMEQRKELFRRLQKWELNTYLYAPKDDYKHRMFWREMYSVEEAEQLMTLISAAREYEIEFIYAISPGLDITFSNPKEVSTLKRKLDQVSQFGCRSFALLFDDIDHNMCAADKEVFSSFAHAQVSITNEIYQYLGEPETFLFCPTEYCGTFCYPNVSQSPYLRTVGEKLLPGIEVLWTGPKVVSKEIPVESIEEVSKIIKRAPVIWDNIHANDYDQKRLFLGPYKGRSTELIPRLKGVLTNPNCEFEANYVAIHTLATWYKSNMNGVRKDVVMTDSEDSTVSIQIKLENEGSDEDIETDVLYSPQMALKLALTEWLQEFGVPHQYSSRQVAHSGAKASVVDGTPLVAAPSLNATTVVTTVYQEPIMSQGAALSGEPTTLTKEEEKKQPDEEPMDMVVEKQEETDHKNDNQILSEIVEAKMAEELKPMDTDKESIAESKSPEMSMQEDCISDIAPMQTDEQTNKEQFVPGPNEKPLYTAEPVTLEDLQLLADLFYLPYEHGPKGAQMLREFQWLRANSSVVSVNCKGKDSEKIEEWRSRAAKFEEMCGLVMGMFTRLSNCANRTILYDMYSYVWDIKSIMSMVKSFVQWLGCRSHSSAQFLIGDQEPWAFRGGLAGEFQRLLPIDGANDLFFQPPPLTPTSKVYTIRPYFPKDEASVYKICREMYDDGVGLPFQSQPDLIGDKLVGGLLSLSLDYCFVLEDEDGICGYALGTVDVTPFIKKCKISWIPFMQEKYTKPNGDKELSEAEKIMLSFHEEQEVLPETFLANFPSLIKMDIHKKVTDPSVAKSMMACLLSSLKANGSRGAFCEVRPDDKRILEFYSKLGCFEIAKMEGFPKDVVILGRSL
The experiment in a line: hOGA inhibition, 4-MU-GlcNAc fluorescent substrate, Dixon plots (competitive model). The data set is classed as biochemical. The following applies: for Ki(hHexB)/Ki(hOGA): ratio defines selectivity towards hOGA; for Ki: recombinant hOGA, 4-MU-GlcNAc, pH 7.5, 37 °C. On the procedure:
(§1) The inhibitory potency of compounds 5a–f was evaluated against recombinant hOGA and hHexB enzymes. The enzymes were prepared and purified as described previously. For inhibition of hOGA, fluorescent 4-MU-GlcNAc was used as the substrate. […] In the case of inhibition of hHexB, Michaelis–Menten kinetics were evaluated using pNP-GlcNAc as a colorimetric substrate. Inhibition constants (Ki) were determined by nonlinear regression analyses by employing the competitive inhibition model (cf. the Experimental section and Supplementary Materials).
(§2) The detailed protocol for the expression of hOGA and the subsequent purification procedure of the recombinant protein have been described in our previous work. The gene construct encoding the full-length human OGA fused to N-terminal His6-tag was kindly provided by Prof. D. Vocadlo (SFU, Burnaby, BC, Canada). Human β-N-acetylhexosaminidase B (hHexB) was expressed in Pichia pastoris, and the extracellularly produced enzyme was isolated according to the procedure described by Krejzová et al..
The inhibitory potency of compounds 5a–f was evaluated against recombinant enzymes hOGA and hHexB. In the case of hOGA inhibition, 4-MU-GlcNAc was used as a substrate at three concentrations (7 µM, 12 µM, and 25 µM) in the reaction mixtures containing 50 mM potassium phosphate buffer (pH 7.5), an inhibitor 5a–f in a final concentration of 0 to 750 nM, and 3 nM hOGA. In all cases, the enzyme and the inhibitors were preincubated at 37 °C, then the reaction was initiated by the addition of the substrate. All reactions were carried out in a fluorescence cuvette (Hellma Analytics, Müllheim, Germany), held in the thermostat cell holder of a Jasco FP-8200 fluorescence spectrophotometer (Easton, MD, USA) equipped with a Xe lamp light source. The excitation of the reactions was performed at […] and emission was detected at […] every 10 s for 10 min. All measurements were performed in triplicates. Initial velocities were determined and the reciprocal of initial velocities was plotted against inhibitor concentrations. The inhibitory mode of the compounds on hOGA was assessed by the Cornish–Bowden method, which involves the plotting of [S]/v0 vs. inhibitor concentrations. […] Inhibition constants (Ki) were determined according to the competitive model of the Dixon method by plotting the reciprocal of initial velocities vs. inhibitor concentrations. The intersection point of the linearly fitted lines gave Ki in nM.

The target of a further data set is T2, hHexB (Homo sapiens, UniProt P07686).
T2 construct: made in house; host or cells: Pichia pastoris
T2 sequence (P07686 122-556): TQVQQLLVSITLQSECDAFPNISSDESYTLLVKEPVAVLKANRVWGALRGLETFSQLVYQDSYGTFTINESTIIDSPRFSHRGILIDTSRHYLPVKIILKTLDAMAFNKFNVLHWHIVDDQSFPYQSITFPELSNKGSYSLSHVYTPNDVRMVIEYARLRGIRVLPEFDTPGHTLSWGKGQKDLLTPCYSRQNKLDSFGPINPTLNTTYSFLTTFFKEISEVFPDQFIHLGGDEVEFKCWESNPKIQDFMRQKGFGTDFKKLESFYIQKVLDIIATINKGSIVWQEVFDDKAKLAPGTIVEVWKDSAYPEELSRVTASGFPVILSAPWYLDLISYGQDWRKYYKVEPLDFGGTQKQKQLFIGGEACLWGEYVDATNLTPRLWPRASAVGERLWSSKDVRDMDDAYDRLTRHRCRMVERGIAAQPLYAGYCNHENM
The experiment in a line: hHexB inhibition, pNP-GlcNAc colorimetric substrate, Michaelis–Menten kinetics. The settings on record: recombinant hHexB, pH 5.0, 35 °C. The format is biochemical. The protocol:
as §1, §2
In the case of hHexB inhibition, Michaelis–Menten kinetics were evaluated using pNP-GlcNAc as a substrate. The kinetic reactions took place in Eppendorf tubes in a final volume of 400 μL containing 24 nM HexB, pNP-GlcNAc substrate in the range of 0.1–3 mM, and various inhibitor concentrations ranging from 0 to 300 nM in 50 mM citrate-phosphate buffer, pH 5.0. The reactions were incubated at 35 °C and then 50 μL samples were taken every 60 s. Samples were mixed with a quenching solution of 150 μL 0.1 M Na2CO3 and the absorbance of the solutions was measured at 420 nm by a Tecan Sunrise plate reader (Männedorf, Switzerland). All measurements were performed in triplicates. Initial velocities were determined from the data points by linear fit, and then nonlinear regression analyses were performed using the competitive inhibition model to calculate Ki values. GraphPad Prism software was used for the calculations.

In a further data set the target is HexA/B. Also noted: method as in PMID 34186233. The settings on record: enzyme contains two predominant isozymes, Hex A and Hex B; cited from earlier work.

Values joined by “and” are separate entries in the source; they are usually repeats but may differ in a detail not shown here. Equal entries are not always repeated.

One may read the Ki as the equilibrium dissociation constant of an inhibitor or competing ligand from its target. Turning to `CC(=O)N[C@H]1/C(=N/OC(=O)Nc2ccc(Br)cc2)O[C@H](CO)[C@@H](O)[C@@H]1O` [I (4-Br-C6H4-)], the Ki at OGA is 56 nM; at HexB it was 47 nM.

Broadly, the melting point is the temperature of the solid-liquid transition. Consider `CC(=O)N[C@H]1C(=NNS(=O)(=O)c2ccc(Cl)cc2)O[C@H](CO)[C@@H](O)[C@@H]1O` [5d, 2-Acetamido-2-deoxy-D-glucono-1,5-lactone p-Chlorobenzenesulfonylhydrazone], for which the melting point is 180 to 182 °C (dec.). At hOGA, the “Ki(hHexB)/Ki(hOGA)” value worked out at 0.56 and the Ki came to 70 ± 3 nM. Besides, at hHexB, the Ki stood at 39 ± 2 nM.

`CC(=O)N[C@H]1C(=NNS(=O)(=O)c2ccc(C)cc2)O[C@H](CO)[C@@H](O)[C@@H]1O` [5a, 2-Acetamido-2-deoxy-D-glucono-1,5-lactone p-Toluenesulfonylhydrazone] yielded a melting point of 165 to 166 °C. For the same molecule, on hOGA, the “Ki(hHexB)/Ki(hOGA)” value is recorded as 0.27 and the Ki worked out at 78 ± 1 nM. Further, at hHexB, the Ki worked out at 21 ± 2 nM.

Consider `CC(=O)N[C@H]1/C(=N/OC(=O)Nc2ccccc2)O[C@H](CO)[C@@H](O)[C@@H]1O` [PUGNAc], for which the “Ki(hHexB)/Ki(hOGA)” value on hOGA came to 0.8. The results for the Ki at OGA and at HexB were 46 nM and 36 nM, respectively.

With `CC(=O)N[C@H]1C(=NNS(=O)(=O)c2ccc3ccccc3c2)O[C@H](CO)[C@@H](O)[C@@H]1O` [5e, 2-Acetamido-2-deoxy-D-glucono-1,5-lactone 2-Naphthalenesulfonylhydrazone], the melting point is 172 to 173 °C. Further, on hOGA, the “Ki(hHexB)/Ki(hOGA)” value stood at 1; the Ki is ~30 nM and 30 nM. The Ki on hHexB was found to be 30 ± 3 nM.

Consider `CC(=O)N[C@H]1/C(=N/NC(=O)Nc2ccccc2)O[C@H](CO)[C@@H](O)[C@@H]1O` [II (Ph)], for which the Ki at OGA is 190 nM; on HexA/B, 205 nM.

Take `CC(=O)N[C@H]1C(=NNC(=O)Nc2ccc3ccccc3c2)O[C@H](CO)[C@@H](O)[C@@H]1O` [2-acetamido-2-deoxy-D-glucono-1,5-lactone 4-(2-naphthyl)-semicarbazone]: on hOGA, the “Ki(hHexB)/Ki(hOGA)” value is on record as 1.3. Also, the figures for the Ki at OGA and on HexA/B were 36 nM and 47 nM, respectively.

As to `CC(=O)N[C@H]1/C(=N/OC(=O)Nc2ccc(C)cc2)O[C@H](CO)[C@@H](O)[C@@H]1O` [I (4-Me-C6H4-)], the Ki at OGA was 28 nM; on HexB, 21 nM.

Turning to `CC(=O)N[C@H]1C(=NNS(=O)(=O)c2ccc(F)cc2)O[C@H](CO)[C@@H](O)[C@@H]1O` [5c, 2-Acetamido-2-deoxy-D-glucono-1,5-lactone p-Fluorobenzenesulfonylhydrazone], the melting point is 175 to 177 °C. The Ki on hOGA was found to be 95 ± 11 nM. Moreover, at hHexB, the Ki is 45 ± 3 nM.

On to `CC(=O)N[C@H]1/C(=N/NC(=O)Nc2ccc(C)cc2)O[C@H](CO)[C@@H](O)[C@@H]1O` [II (4-Me-C6H4-)], for which the Ki is 155 nM at OGA and 332 nM on HexA/B.

For the molecule `CC(=O)N[C@H]1/C(=N/NC(=O)Nc2ccc(Cl)cc2)O[C@H](CO)[C@@H](O)[C@@H]1O` [II (4-Cl-C6H4-)], the Ki on OGA was 83 nM; at HexA/B, 170 nM.

Take `CC(=O)N[C@H]1/C(=N/NS(=O)(=O)c2cccc3ccccc23)O[C@H](CO)[C@@H](O)[C@@H]1O` [5f, 2-Acetamido-2-deoxy-D-glucono-1,5-lactone 1-Naphthalenesulfonylhydrazone]: the melting point was 145 to 147 °C. On hOGA, the “Ki(hHexB)/Ki(hOGA)” value was determined as 0.25 and the Ki was 27 ± 7 nM. For the same molecule, on hHexB, the Ki was 6.8 ± 1.8 nM.

For the molecule `CC(=O)N[C@H]1C(=NNS(=O)(=O)c2ccc(C(F)(F)F)cc2)O[C@H](CO)[C@@H](O)[C@@H]1O` [5b, 2-Acetamido-2-deoxy-D-glucono-1,5-lactone p-Trifluoromethylbenzenesulfonylhydrazone], the melting point is 175 to 176 °C (dec.). Moreover, at hOGA, the “Ki(hHexB)/Ki(hOGA)” value came to 0.21 and the Ki worked out at 230 ± 17 nM. On hHexB, the Ki was determined as 48 ± 4 nM.
